Measurements reported in paper PMC5785997, “2-Phenylquinazolinones as dual-activity tankyrase-kinase inhibitors” (Scientific Reports, 2018).

How the values were obtained:
CDK9 = CDK9 (Homo sapiens, UniProt P50750); experiment: Kinase functional assay (mobility shift), CDK9; format: biochemical; conditions: read-out: CDK9 (% Inhib.); for inhibition at 1 µM: 1 µM compound, Table S3; for inhibition at 10 µM: 10 µM compound, Table S4
ARTD12/PARP12 = target: T1, ARTD12/PARP12 (Homo sapiens, UniProt Q9H0J9); experiment: ARTD profiling, ARTD12
T1 sequence (Q9H0J9 484-698 limits assumed): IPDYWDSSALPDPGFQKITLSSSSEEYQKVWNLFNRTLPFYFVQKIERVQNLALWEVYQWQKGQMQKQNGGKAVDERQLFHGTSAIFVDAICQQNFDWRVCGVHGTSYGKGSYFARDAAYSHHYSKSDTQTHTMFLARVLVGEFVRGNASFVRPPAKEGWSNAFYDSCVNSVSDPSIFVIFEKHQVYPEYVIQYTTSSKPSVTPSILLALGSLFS

GSK3β = GSK3β (Homo sapiens, UniProt P49841); experiment: Kinase functional assay (mobility shift), GSK3β; format: biochemical; conditions: read-out: GSK3β (% Inhib.); for inhibition at 1 µM: 1 µM compound, Table S3; for inhibition at 10 µM: 10 µM compound, Table S4
[1] = system: Wnt/β-catenin signaling (TCF/LEF Reporter HEK293 Cell Line); experiment: Wnt signaling TCF/LEF reporter assay in HEK293 cells; format: cell-based, human; conditions: for Wnt (HEK293) inhibition at 1 µM: 1 µM compound; for inhibition at 1 µM: HEK293, 1 µM compound
Method: The Wnt assay was performed using a procedure modified from the BPS Bioscience protocol. Details are given in the Supplementary Methods. […]
The Wnt Signaling Pathway TCF/LEF Reporter HEK293 Cell Line (BPS Bioscience, catalog […]
Reporter HEK293 cells were grown at 37 °C with 5% CO2 using Dulbecco's Modified Eagle's Medium (DMEM, Sigma), supplemented with 10% of fetal bovine serum (Lonza), 1% non-essential amino acid (Sigma), 1X of penicillin and streptomycin (Sigma), and 400 µg/ml of Geneticin (Roche). Wnt-3a and L cells (ATCC) were cultured in Dulbecco’s modified Eagle’s medium supplemented with 10% fetal bovine serum, penicillin and streptomycin at 37 °C in a 5%
CO2. Wnt3a and control conditioned medium preparation has been described previously1. The Wnt assay was performed using a procedure modified from the BPS Bioscience protocol. 30,000 HEK293 cells/well in 40 µl of serum-free DMEM were plated on 96-well plate (white wells, clear […]
bottom, PerkinElmer). 10 µl of 50 mM LiCl in serum-free DMEM with 5x concentration of DMSO or tankyrase inhibitors was added. After 16 hours of incubation, 25 µl of Wnt3a or control conditioned medium supplemented with DMSO or tankyrase inhibitors was added on cells and cells were incubated for additional 24 hours. After the second incubation, the 96-well plates were balanced in room temperature for 30 minutes. Wnt3a induced luciferase activity was determined using ONE-Glo Luciferase Assay System (Promega) according to manufacturer’s protocol. […]
Difference Fourier method deriving the starting phases from 3U9H. The refinement of the structures was done with REFMAC5.5,6 Final manual building, analysis and visualization of the structures were made with Coot7 and PyMOL (www.pymol.org). All chemical structures were drawn with Marvin (Marvin 5.7.0 2011, ChemAxon, http://www.chemaxon.com). The docking studies were performed using GOLD software.8

ARTD1/PARP1 = ARTD1/PARP1 (Homo sapiens, UniProt P09874); experiment: ARTD profiling, ARTD1
TNKS2 = TNKS2 (Homo sapiens, UniProt Q9H2K2); experiment: NAD+ quantification activity assay, TNKS2; format: biochemical; conditions: TNKS2 IC50, NAD+ 500 nM
Method: The activity assay used to measure the potency of the compounds against TNKS2 is based on the quantification of NAD^+[38]. The reactions were carried out in 96-well plate (Greiner bio-one, U-shaped) and the conditions were the same as reported earlier (Table S5)[24].
The compounds were stored in 100% DMSO at −20 °C. All the compounds were diluted in the TNKS2 assay buffer (50 mM Bis-Tris Propane, 0.5 mM TCEP, 0.01% Triton-100x). Control reactions were used to exclude the effect of compound fluorescence and quenching from the calculations. […] The pIC50 values were calculated and fitted with nonlinear regression using 4-parameters with GraphPad Prism (version 5.0 for windows).
Protein (nM) NAD+ (nM) Incubation Buffer
Kinase [ATP] Substrate Incubation Reaction buffer

[2] = Homo sapiens, TCF/LEF reporter HEK293

Chain of CDK9 (P50750 whole entry, species assumed): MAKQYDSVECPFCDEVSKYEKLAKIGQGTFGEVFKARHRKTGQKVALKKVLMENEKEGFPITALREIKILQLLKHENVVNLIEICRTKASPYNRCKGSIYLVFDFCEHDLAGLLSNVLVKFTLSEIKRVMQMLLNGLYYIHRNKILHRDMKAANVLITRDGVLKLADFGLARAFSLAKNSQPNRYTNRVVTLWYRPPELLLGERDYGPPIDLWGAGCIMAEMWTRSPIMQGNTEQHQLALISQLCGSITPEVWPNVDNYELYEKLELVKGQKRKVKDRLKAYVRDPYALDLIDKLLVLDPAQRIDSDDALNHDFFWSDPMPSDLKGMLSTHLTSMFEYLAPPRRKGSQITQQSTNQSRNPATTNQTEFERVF
Chain of CDK9 (O60563 whole entry partner, species assumed): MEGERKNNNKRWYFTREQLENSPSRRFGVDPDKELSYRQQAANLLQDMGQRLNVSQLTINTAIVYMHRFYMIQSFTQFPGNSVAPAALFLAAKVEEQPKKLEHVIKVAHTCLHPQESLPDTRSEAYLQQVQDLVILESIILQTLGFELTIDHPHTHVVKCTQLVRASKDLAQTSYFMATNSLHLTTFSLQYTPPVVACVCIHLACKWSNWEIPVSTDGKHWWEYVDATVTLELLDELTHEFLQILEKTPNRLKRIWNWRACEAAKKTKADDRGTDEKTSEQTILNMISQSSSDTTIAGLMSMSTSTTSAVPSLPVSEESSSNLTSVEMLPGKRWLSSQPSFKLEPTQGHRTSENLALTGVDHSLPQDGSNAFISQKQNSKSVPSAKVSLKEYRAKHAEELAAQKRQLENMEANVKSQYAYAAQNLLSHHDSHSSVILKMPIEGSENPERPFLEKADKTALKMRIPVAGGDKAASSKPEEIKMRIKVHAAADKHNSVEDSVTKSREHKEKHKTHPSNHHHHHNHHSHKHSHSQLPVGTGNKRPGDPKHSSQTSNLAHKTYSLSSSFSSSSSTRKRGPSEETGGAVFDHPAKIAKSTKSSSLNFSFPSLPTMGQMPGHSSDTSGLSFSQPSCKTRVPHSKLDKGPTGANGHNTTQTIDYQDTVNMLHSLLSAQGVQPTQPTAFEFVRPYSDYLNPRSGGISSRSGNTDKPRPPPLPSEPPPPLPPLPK
Chain of GSK3β (P49841 whole entry, species assumed): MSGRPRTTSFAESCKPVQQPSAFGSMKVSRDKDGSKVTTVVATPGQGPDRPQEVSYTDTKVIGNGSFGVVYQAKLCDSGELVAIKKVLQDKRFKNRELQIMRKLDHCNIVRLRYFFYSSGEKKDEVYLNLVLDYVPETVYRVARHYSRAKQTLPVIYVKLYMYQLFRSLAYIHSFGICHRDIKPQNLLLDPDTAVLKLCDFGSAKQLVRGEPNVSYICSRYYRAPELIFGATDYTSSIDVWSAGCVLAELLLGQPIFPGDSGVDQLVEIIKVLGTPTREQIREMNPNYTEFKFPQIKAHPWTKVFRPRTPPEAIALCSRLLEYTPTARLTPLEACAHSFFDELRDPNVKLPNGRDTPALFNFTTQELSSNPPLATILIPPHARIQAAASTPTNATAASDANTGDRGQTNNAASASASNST
Chain of ARTD1/PARP1 (P09874 whole entry): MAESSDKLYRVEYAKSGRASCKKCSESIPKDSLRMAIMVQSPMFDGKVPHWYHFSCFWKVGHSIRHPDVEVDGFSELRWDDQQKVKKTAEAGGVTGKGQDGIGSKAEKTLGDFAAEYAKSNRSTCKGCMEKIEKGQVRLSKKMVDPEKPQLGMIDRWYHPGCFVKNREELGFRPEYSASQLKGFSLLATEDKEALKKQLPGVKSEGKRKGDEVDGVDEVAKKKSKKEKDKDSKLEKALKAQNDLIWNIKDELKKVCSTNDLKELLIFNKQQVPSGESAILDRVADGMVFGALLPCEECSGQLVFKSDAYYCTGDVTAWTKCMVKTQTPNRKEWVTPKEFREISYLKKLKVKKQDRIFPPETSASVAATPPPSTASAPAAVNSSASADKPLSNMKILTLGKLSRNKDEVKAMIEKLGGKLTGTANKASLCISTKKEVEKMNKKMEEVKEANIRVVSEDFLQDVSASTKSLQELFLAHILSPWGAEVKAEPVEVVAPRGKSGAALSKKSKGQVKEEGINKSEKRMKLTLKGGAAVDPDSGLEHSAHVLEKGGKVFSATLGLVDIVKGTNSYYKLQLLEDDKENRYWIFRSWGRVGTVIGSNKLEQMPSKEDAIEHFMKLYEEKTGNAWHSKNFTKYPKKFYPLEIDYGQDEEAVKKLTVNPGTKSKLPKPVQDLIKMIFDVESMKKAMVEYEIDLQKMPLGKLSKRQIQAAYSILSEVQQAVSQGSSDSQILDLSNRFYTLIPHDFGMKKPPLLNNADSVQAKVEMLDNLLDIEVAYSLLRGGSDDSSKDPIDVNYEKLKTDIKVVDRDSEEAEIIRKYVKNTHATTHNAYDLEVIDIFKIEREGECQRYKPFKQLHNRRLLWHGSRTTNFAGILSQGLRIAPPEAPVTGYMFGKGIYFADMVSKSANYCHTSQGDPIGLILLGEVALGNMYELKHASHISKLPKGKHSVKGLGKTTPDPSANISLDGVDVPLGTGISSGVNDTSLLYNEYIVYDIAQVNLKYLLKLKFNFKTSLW
Chain of TNKS2 (Q9H2K2 959-1164): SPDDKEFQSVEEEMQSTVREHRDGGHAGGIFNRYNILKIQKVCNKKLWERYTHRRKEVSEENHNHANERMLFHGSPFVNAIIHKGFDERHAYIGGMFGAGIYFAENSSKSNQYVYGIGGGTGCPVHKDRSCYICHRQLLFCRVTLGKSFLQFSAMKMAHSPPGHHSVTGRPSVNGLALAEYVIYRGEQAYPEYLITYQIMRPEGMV

inhibition at 1 µM (CDK9) [%] | inhibition at 10 µM (CDK9) [%] | IC50 (ARTD12/PARP12) [µM] | inhibition at 1 µM (GSK3β) [%] | inhibition at 10 µM (GSK3β) [%] | IC50 (ARTD1/PARP1) [µM] | IC50 (TNKS2) [µM] | Structure (SMILES) | Wnt (HEK293) inhibition at 1 µM ([1]; TCF/LEF reporter HEK293) [%] | inhibition at 1 µM [1, 2] [%] | IC50 [1, 2] [µM] | Effect on Wnt/β-catenin signaling at lower concentrations ([1]; concentrations below 1 µM)
12 ± 4 | 31 ± 4 | > 10 | 1 ± 1 | 11 ± 3 | 18 | 0.015 | O=c1[nH]c(-c2ccc(N3CCCCC3)cc2)nc2ccccc12 [Compound 30] | > 50 | 61 | 0.57 | 
13 ± 4 | 16 ± 3 | > 10 | 1 ± 1 | 4 ± 4 | 30 | 0.01 | CCN(CC)c1ccc(-c2nc3ccccc3c(=O)[nH]2)cc1 [Compound 32] | 63 | > 50 |  | activated Wnt/β-catening signaling
